Results as given in US9546164B2 (GENENTECH, INC., priority 2013, dated 2017).
Counter-ions that a name gives are not always drawn.

biological target: hNav1.7 (Homo sapiens (Human), UniProt Q15858); test: Tritiated sulfonamide competitive binding to membranes from cells expressing hNav1.7 and the β1 subunit; conditions: not given;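 note: Filter-bound radioactivity counted by liquid scintillation, nonspecific binding defined with excess unlabelled ligand, IC50 fitted to percent inhibition of specific binding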
Sequence (Q15858 other isoform, or with tags, fused parts or gaps): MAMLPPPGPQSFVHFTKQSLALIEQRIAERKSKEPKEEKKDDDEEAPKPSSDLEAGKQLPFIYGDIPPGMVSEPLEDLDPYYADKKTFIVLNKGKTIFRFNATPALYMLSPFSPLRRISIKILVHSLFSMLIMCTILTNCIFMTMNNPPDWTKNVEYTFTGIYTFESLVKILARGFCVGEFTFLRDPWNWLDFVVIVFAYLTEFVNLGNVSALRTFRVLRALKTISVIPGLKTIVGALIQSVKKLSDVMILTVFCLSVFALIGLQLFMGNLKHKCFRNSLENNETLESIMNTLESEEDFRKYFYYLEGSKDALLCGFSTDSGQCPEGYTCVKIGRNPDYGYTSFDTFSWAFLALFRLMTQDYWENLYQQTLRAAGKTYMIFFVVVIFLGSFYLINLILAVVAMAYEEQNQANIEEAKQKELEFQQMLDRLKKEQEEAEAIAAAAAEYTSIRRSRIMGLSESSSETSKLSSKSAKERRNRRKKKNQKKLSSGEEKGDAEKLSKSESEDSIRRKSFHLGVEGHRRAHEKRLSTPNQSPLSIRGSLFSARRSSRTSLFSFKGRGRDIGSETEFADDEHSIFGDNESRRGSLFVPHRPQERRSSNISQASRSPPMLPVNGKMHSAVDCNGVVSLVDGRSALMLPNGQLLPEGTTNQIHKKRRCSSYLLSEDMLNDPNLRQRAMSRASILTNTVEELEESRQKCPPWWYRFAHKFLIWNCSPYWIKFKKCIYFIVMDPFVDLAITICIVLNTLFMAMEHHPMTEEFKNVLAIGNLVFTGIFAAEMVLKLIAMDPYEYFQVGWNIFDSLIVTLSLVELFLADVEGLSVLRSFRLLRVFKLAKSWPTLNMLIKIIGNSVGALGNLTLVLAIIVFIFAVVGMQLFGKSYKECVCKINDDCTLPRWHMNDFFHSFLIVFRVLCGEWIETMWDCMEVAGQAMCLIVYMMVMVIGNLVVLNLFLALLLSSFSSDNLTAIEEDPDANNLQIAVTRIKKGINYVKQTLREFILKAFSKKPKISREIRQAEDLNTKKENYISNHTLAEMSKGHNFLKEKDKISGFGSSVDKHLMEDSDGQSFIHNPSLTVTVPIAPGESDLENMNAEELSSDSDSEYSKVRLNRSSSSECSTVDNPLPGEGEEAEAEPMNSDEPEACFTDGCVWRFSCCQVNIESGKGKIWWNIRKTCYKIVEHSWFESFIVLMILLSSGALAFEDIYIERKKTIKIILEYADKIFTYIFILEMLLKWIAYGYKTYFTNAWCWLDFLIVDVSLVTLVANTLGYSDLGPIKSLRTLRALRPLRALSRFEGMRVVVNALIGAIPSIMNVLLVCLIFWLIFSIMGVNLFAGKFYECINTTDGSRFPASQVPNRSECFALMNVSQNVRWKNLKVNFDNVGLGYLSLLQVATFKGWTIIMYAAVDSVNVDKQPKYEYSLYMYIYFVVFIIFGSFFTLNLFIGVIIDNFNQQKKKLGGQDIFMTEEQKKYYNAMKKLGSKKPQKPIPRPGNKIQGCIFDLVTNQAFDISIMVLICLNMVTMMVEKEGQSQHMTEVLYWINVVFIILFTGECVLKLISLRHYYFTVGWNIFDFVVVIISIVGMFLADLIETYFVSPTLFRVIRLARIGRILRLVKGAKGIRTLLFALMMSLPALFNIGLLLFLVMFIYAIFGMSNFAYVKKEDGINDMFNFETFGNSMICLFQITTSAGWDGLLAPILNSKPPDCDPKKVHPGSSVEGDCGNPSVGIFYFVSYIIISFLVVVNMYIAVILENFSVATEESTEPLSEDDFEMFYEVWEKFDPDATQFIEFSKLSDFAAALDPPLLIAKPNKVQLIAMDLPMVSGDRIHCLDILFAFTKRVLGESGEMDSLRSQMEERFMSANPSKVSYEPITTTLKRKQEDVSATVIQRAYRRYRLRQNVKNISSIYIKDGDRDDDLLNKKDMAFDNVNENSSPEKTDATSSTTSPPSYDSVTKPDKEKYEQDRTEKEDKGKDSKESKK
Sequence (Q07699 19-218 partner): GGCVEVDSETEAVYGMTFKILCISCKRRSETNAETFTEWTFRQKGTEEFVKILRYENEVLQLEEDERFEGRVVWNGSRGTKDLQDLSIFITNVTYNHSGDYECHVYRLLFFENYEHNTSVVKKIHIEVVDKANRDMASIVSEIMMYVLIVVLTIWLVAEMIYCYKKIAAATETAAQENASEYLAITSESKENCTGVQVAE

First: CS(=O)(=O)NC(=O)c1cc(C2CC2)c(CN2CCC(Oc3ccc(Cl)c(Cl)c3)CC2)cc1F [Example 509, 5-cyclopropyl-4-((4-(3,4-dichlorophenoxy)piperidin-1-yl)methyl)-2-fluoro-N-(methylsulfonyl)benzamide, trifluoroacetic acid salt)]
Second: O=C(NS(=O)(=O)C1CC1)c1cc(C2CC2)c(O[C@@H]2CCCN(Cc3ccc(Cl)c(Cl)c3)C2)cc1F [Example 18, (R)-5-cyclopropyl-N-(cyclopropylsulfonyl)-4-((1-(3,4-dichlorobenzyl)-piperidin-3-yl)oxy)-2-fluorobenzamide]
The IC50 of the first is 5-fold higher: 13.1 nM for the first, 2.6 nM for the second. The second is the more potent here.

Work on CC1(C)CN(Cc2cc(F)c(C(=O)NS(C)(=O)=O)cc2C2CC2)CCC1Oc1cc(C(F)(F)F)c(Cl)cn1 (centres unmarked) [Example 561, 4-((4-((5-chloro-4-(trifluoromethyl)pyridin-2-yl)oxy)-3,3-dimethylpiperidin-1-yl)methyl)-5-cyclopropyl-2-fluoro-N-(methylsulfonyl)benzamide, trifluoroacetic acid salt] yielded an IC50 of 2.8 nM.

same assay, conditions: read-out: Ligand Binding Assay; 100 pM [3H]compound, membranes with hNav1.7 and β1 subunit, 18 h, room temperature

Going from C[C@@H](c1ccc(Cl)c(C2CC2)n1)N1CCC[C@@H](Oc2cc(F)c(C(=O)NS(C)(=O)=O)cc2C2CC2)C1 [Example 310, 4-(((R)-1-((S)-1-(5-chloro-6-cyclopropylpyridin-2-yl)ethyl)piperidin-3-yl)oxy)-5-cyclopropyl-2-fluoro-N-(methylsulfonyl)benzamide] to C[C@@H](c1cc(F)cc(Cl)c1)N1CCC(COc2cc(F)c(C(=O)NS(C)(=O)=O)cc2C2CC2)CC1 (single isomer, unassigned) [Example 231], the IC50 rises from 2.3 nM to 5.9 nM (2.6-fold).

First: CS(=O)(=O)NC(=O)c1cc(C2CC2)c(OCC2CN([C@@H](c3ccccc3)c3cc(Cl)cc(Cl)c3)C2)cc1F [Example 142, (S)-5-Cyclopropyl-4-((1-((3,5-dichlorophenyl)(phenyl)methyl)azetidin-3-yl)methoxy)-2-fluoro-N-(methylsulfonyl)benzamide]
Second: CS(=O)(=O)NC(=O)c1cc(C2CC2)c(OCC2CN(S(=O)(=O)c3ccccc3)C2)cc1F [Example 129, 5-Cyclopropyl-2-fluoro-N-(methylsulfonyl)-4-((1-(phenylsulfonyl)-azetidin-3-yl)methoxy)benzamide]
The IC50 of the first is 210-fold lower: 6.57 nM for the first, 1370 nM for the second.

C[C@H](c1cccc(F)c1)N1CCC(C)(COc2cc(F)c(C(=O)NS(C)(=O)=O)cc2C2CC2)CC1 (single isomer, unassigned) [Example 250] and C[C@H](c1ccc(OC(F)(F)F)cc1)N1CCC(C)(COc2cc(F)c(C(=O)NS(C)(=O)=O)cc2C2CC2)CC1 (single isomer, unassigned) [Example 249] are within 1.5-fold of each other in IC50: 43 nM for the first, 39 nM for the second.

Going from O=C(NS(=O)(=O)C1CC1)c1cc(C2CC2)c(OCC2CCN(Cc3cc(C(F)(F)F)cc(Cl)c3F)CC2)cc1F [Example 582, 4-((1-(3-chloro-2-fluoro-5-(trifluoromethyl)benzyl)piperidin-4-yl)methoxy)-5-cyclopropyl-N-(cyclopropylsulfonyl)-2-fluorobenzamide] to O=C(NS(=O)(=O)C1CC1)c1cc(C2CC2)c(OCC2CCN(S(=O)(=O)c3ccc(C(F)(F)F)cc3)CC2)cc1F [Example 373, 5-cyclopropyl-N-(cyclopropylsulfonyl)-2-fluoro-4-((1-((4-(trifluoromethyl)phenyl)sulfonyl)piperidin-4-yl)methoxy)benzamide], the IC50 rises from 4.2 nM to 19.7 nM (4.7-fold). The first is the more potent here.

First: CS(=O)(=O)NC(=O)c1cc(C2CC2)c(OCC2CCN(Cc3ccc(Br)c(Cl)c3)CC2)cc1F [Example 587, 4-((1-(4-bromo-3-chlorobenzyl)piperidin-4-yl)methoxy)-5-cyclopropyl-2-fluoro-N-(methylsulfonyl)benzamide]
Second: CS(=O)(=O)NC(=O)c1cc(C2CC2)c(OCC2CCN(C(=O)c3ccc(Cl)cc3Cl)CC2)cc1F [Example 257, 5-Cyclopropyl-4-((1-(2,4-dichlorobenzoyl)piperidin-4-yl)methoxy)-2-fluoro-N-(methylsulfonyl)benzamide]
The IC50 of the first is 53-fold lower: 5.1 nM for the first, 270 nM for the second. The first is the more potent here.

C[C@H]1[C@H](Oc2cc(F)c(C(=O)NS(C)(=O)=O)cc2C2CC2)CCCN1Cc1cc(Cl)cc(Cl)c1 [Example 331, 5-cyclopropyl-4-(((2S,3R)-1-(3,5-dichlorobenzyl)-2-methylpiperidin-3-yl)oxy)-2-fluoro-N-(methylsulfonyl)benzamide, trifluoroacetic acid salt] and C[C@@H](c1cc(Cl)cc(Cl)c1)N1CCC(COc2cc(F)c(C(=O)NS(C)(=O)=O)cc2Cl)CC1 [Example 402, (S)-5-chloro-4-((1-(1-(3,5-dichlorophenyl)ethyl)piperidin-4-yl)methoxy)-2-fluoro-N-(methylsulfonyl)benzamide, trifluoroacetic acid salt] are within 1.5-fold of each other in IC50: 32.2 nM for the first, 22.4 nM for the second.

First: CS(=O)(=O)NC(=O)c1cc(C2CC2)c(OCC2CN(Cc3cccc(F)c3)C2)cc1F [Example 73, 5-cyclopropyl-2-fluoro-4-((1-(3-fluorobenzyl)azetidin-3-yl)methoxy)-N-(methylsulfonyl)benzamide]
Second: CC(c1cc(F)cc(F)c1)N1CC(COc2cc(F)c(C(=O)NS(C)(=O)=O)cc2C2CC2)C1 (centres unmarked) [Example 86, 5-Cyclopropyl-4-((1-(1-(3,5-difluorophenyl)ethyl)azetidin-3-yl)methoxy)-2-fluoro-N-(methylsulfonyl)benzamide]
The IC50 of the first is 26-fold higher: 1300 nM for the first, 49.5 nM for the second. The second is the more potent here.

Compared with CS(=O)(=O)N1CCC(COc2cc(F)c(C(=O)NS(=O)(=O)C3CC3)cc2C2CC2)CC1 [Example 394, 5-cyclopropyl-N-(cyclopropylsulfonyl)-2-fluoro-4-((1-(methylsulfonyl)piperidin-4-yl)methoxy)benzamide], O=C(NS(=O)(=O)C1CC1)c1cc(C2CC2)c(OC[C@H]2CCCN(Cc3ccc(F)cc3Cl)C2)cc1F [Example 340, (S)-4-((1-(2-chloro-4-fluorobenzyl)piperidin-3-yl)methoxy)-5-cyclopropyl-N-(cyclopropylsulfonyl)-2-fluorobenzamide, trifluoroacetic acid salt] is 1300-fold lower in IC50: 6010 nM for the first, 4.7 nM for the second.

Compared with CC1(COc2cc(F)c(C(=O)NS(=O)(=O)C3CC3)cc2C2CC2)CN(c2ccncc2C(F)(F)F)C1 [Example 489, 5-cyclopropyl-N-(cyclopropylsulfonyl)-2-fluoro-4-((3-methyl-1-(3-(trifluoromethyl)pyridin-4-yl)azetidin-3-yl)methoxy)benzamide, trifluoroacetic acid salt], O=C(NS(=O)(=O)C1CC1)c1cc(C2CC2)c(OCC2CN(c3cc(C(F)(F)F)c(Cl)cn3)C2)cc1F [Example 543, 4-((1-(5-chloro-4-(trifluoromethyl)pyridin-2-yl)azetidin-3-yl)methoxy)-5-cyclopropyl-N-(cyclopropylsulfonyl)-2-fluorobenzamide] is 8.8-fold lower in IC50: 103 nM for the first, 11.7 nM for the second. The second is the more potent here.

Going from O=C(NS(=O)(=O)N1CCC1)c1cc(C2CC2)c(OC[C@@H]2CCCN(Cc3ccc(F)cc3Cl)C2)cc1F [Example 333] to O=C(NS(=O)(=O)C1CC1)c1cc(C2CC2)c(CN2[C@@H]3CC[C@H]2C[C@@H](Oc2cc(C(F)(F)F)c(Cl)cn2)C3)cc1F [Example 551, 4-(((1R,3r,5S)-3-((5-chloro-4-(trifluoromethyl)pyridin-2-yl)oxy)-8-azabicyclo[3.2.1]octan-8-yl)methyl)-5-cyclopropyl-N-(cyclopropylsulfonyl)-2-fluorobenzamide, trifluoroacetic acid salt], the IC50 falls from 20.7 nM to 7.5 nM (2.8-fold). The second is the more potent here.
